Assay results from patent US10799442B2, “Compounds useful in the treatment and/or care of the skin, hair, nails, and/or mucous membranes” (LUBRIZOL ADVANCED MATERIALS, INC., priority 2015, dated 2020).
[ ]: non-standard residue; d: D form. The star is where a group is joined. Palmitoyl = CCCCCCCCCCCCCCCC(=O)*; NHhexadecyl = CCCCCCCCCCCCCCCCN*; Myristoyl = CCCCCCCCCCCCCC(=O)*; Orn = NCCC[C@H](N)C(=O)O; NHHex = CCCCCCN*

Test system: human miRNA145
Assay: miRNA145 inhibition on Human Keratinocyte HaCaT cell line, direct quantification by luminescence
Type: cell-based
Details: HaCaT cells, 0.3 mg/ml, 24 hours, normalized with Snord48; mean of 3 experiments for DD14024, one experiment for the others
Protocol: The synthetic peptide candidates are evaluated for the inhibition of human miRNA145 expression level using a direct miRNA145 quantification assay based on luminescence detection in a Human Keratinocyte HaCaT cell line.
HaCat cells (Deutsches Krebsforschungszentrum) are seeded at 3.0×10^4 cells/well in 96-clear wells plates and incubated in a culture medium [(DMEM High Glucose with L-Glutamine (Lonza), supplemented with 10% Fetal Bovine Serum (Cultek)] for 24 hours at 37° C. in a water-saturated atmosphere of 95% air and 5% CO2. Then, the cells with the candidates added at 0.3 mg/ml in the culture medium are treated for 24 hours at 37° C., 95% air and 5% CO2. Cells with culture medium only are treated to the same conditions to provide basal conditions. Each cell culture condition is assayed at least in 6 biological replicates. At the end of the incubation period, the cells are lysed and the relative miRNA145 expression level is quantified by a specific assay kit (QuantiGene™ 2.0 miRNA Assay Kit) following manufacturer's instructions (Affymetrix). Briefly, to capture miRNA145, culture lysates are incubated overnight at 46±1° C. in 96-white well plates with the miRNA145 specific probe set (Capture extenders and Label extenders). As an endogenous expression control, the housekeeping Snord48 is quantified using a specific probe set. Next day, the signal amplification tree is built via sequential hybridization at 46±1° C. of three probes: PreAmplifier, Amplifier and Alkaline Phosphatase Label Probe. Then, the signal is detected by adding a chemiluminescent substrate and using a Microplate Luminometer Reader (Clariostar-BMG LabTech).
The miRNA145 expression level result is normalized with the Snord48 expression level for each cell culture condition and the relative decrease in the miRNA145 expression level is calculated respect to basal control (cells treated with culture medium only). The values represent the mean of 3 independent experiments for DD14024, and for the other candidates, represent the result of one experiment.

## Ac-Gln-Asp-Met-Arg-Met-Gln-NHC6H13 (Ac-QDMRMQ-NHHex; SMILES CCCCCCNC(=O)[C@H](CCC(N)=O)NC(=O)[C@H](CCSC)NC(=O)[C@H](CCCNC(=N)N)NC(=O)[C@H](CCSC)NC(=O)[C@H](CC(=O)O)NC(=O)[C@H](CCC(N)=O)NC(C)=O) [DD15013]
  Relative level of miRNA145 respect to basal control (%): 84.32 ± 6.96%

## Ac-Pro-Gln-Glu-Met-Arg-Met-Gln-OH (Ac-PQEMRMQ-OH) [DD15045]
  Relative level of miRNA145 respect to basal control (%): 90.71 ± 4.78%

## H-Gln-Asp-Met-Arg-Met-Asn-NH2 (H-QDMRMN-NH2) [DD15025]
  Relative level of miRNA145 respect to basal control (%): 86.95 ± 0.55%

## Myr-Glu-Glu-Met-Arg-Met-Gln-OH (Myristoyl-EEMRMQ-OH; SMILES CCCCCCCCCCCCCC(=O)N[C@@H](CCC(=O)O)C(=O)N[C@@H](CCC(=O)O)C(=O)N[C@@H](CCSC)C(=O)N[C@@H](CCCNC(=N)N)C(=O)N[C@@H](CCSC)C(=O)N[C@@H](CCC(N)=O)C(=O)O) [DD15011]
  Relative level of miRNA145 respect to basal control (%): 73.29 ± 4.37%

## Ac-Glu-Gln-Met-Arg-Met-Gln-OH (Ac-EQMRMQ-OH) [DD15054]
  Relative level of miRNA145 respect to basal control (%): 72.50 ± 2.88%

## H-Gln-Glu-Met-Arg-Ile-Gln-NH2 (H-QEMRIQ-NH2) [DD15019]
  Relative level of miRNA145 respect to basal control (%): 67.00 ± 2.89%

## Ac-QEM[Orn]MQ-OH [DD15022]
  Relative level of miRNA145 respect to basal control (%): 75.41 ± 2.25%

## Ac-Asp-Glu-Met-Arg-Met-Gln-OH (Ac-DEMRMQ-OH) [DD15012]
  Relative level of miRNA145 respect to basal control (%): 71.05 ± 3.82%

## Ac-Gln-Gln-Met-Arg-Met-Gln-OH (Ac-QQMRMQ-OH) [DD15014]
  Relative level of miRNA145 respect to basal control (%): 80.06 ± 3.47%

## Ac-Gln-Glu-Met-Arg-Met-Gln-Thr-NH2 (Ac-QEMRMQT-NH2) [DD15047]
  Relative level of miRNA145 respect to basal control (%): 77.67 ± 9.10%

## Ac-Glu-Glu-Met-Arg-Met-Gln-OH (Ac-EEMRMQ-OH) [DD15051]
  Relative level of miRNA145 respect to basal control (%): 92.26 ± 1.61%

## H-Gln-Glu-Met-Arg-Met-Gln-OH (H-QEMRMQ-OH) [DD15002]
  Relative level of miRNA145 respect to basal control (%): 89.75 ± 0.69%

## Ac-Asp-Gln-Met-Arg-Met-Gln-OH (Ac-DQMRMQ-OH) [DD15053]
  Relative level of miRNA145 respect to basal control (%): 58.64 ± 0.04%

## H-Gln-Glu-Ile-Arg-Met-Gln-NH2 (H-QEIRMQ-NH2) [DD15016]
  Relative level of miRNA145 respect to basal control (%): 87.63 ± 4.46%

## Ac-Gln-Glu-Met-Arg-Met-Gln-Tyr-OH (Ac-QEMRMQY-OH) [DD15046]
  Relative level of miRNA145 respect to basal control (%): 74.02 ± 1.98%

## Ac-Asn-Glu-Ile-Arg-Val-Gln-OH (Ac-NEIRVQ-OH) [DD15026]
  Relative level of miRNA145 respect to basal control (%): 77.60 ± 5.43%

## Ac-Gln-Glu-Met-Arg-Met-Gln-Val-Tyr-OH (Ac-QEMRMQVY-OH) [DD15049]
  Relative level of miRNA145 respect to basal control (%): 80.09 ± 7.49%

## Palm-Gln-Glu-Met-Arg-Met-Gln-OH (Palmitoyl-QEMRMQ-OH) [DD15003]
  Relative level of miRNA145 respect to basal control (%): 76.38 ± 7.00%

## Ac-Gln-Glu-Met-Arg-Met-Asn-OH (Ac-QEMRMN-OH) [DD15056]
  Relative level of miRNA145 respect to basal control (%): 72.43 ± 1.39%

## Palm-Gln-Glu-Leu-Arg-Met-Gln-OH (Palmitoyl-QELRMQ-OH; SMILES CCCCCCCCCCCCCCCC(=O)N[C@@H](CCC(N)=O)C(=O)N[C@@H](CCC(=O)O)C(=O)N[C@@H](CC(C)C)C(=O)N[C@@H](CCCNC(=N)N)C(=O)N[C@@H](CCSC)C(=O)N[C@@H](CCC(N)=O)C(=O)O) [DD15015]
  Relative level of miRNA145 respect to basal control (%): 14.07 ± 0.28%

## Myr-Gln-Glu-Met-Arg-Met-Gln-NH2 (Myristoyl-QEMRMQ-NH2) [DD15052]
  Relative level of miRNA145 respect to basal control (%): 92.94 ± 1.35%

## Ac-Gln-Glu-Met-Arg-Met-Gln-NHC6H13 (Ac-QEMRMQ-NHHex) [DD15004]
  Relative level of miRNA145 respect to basal control (%): 89.03 ± 5.37%

## Ac-Gln-Asp-Met-Lys-Met-Asn-OH (Ac-QDMKMN-OH) [DD15027]
  Relative level of miRNA145 respect to basal control (%): 78.47 ± 0.74%

## Ac-Glu-Glu-Ile-Arg-Met-Gln-NHC16H33 (Ac-EEIRMQ-NHhexadecyl; SMILES CCCCCCCCCCCCCCCCNC(=O)[C@H](CCC(N)=O)NC(=O)[C@H](CCSC)NC(=O)[C@H](CCCNC(=N)N)NC(=O)[C@@H](NC(=O)[C@H](CCC(=O)O)NC(=O)[C@H](CCC(=O)O)NC(C)=O)[C@@H](C)CC) [DD15023]
  Relative level of miRNA145 respect to basal control (%): 74.48 ± 3.34%

## Ac-Ser-Gln-Glu-Met-Arg-Met-Gln-Thr-NH2 (Ac-SQEMRMQT-NH2) [DD15050]
  Relative level of miRNA145 respect to basal control (%): 72.44 ± 3.87%

## Ac-Gln-Glu-Met-Lys-Met-Gln-OH (Ac-QEMKMQ-OH) [DD15017]
  Relative level of miRNA145 respect to basal control (%): 85.50 ± 1.74%

## Ac-Pro-Val-Gln-Glu-Met-Arg-Met-Gln-OH (Ac-PVQEMRMQ-OH) [DD15048]
  Relative level of miRNA145 respect to basal control (%): 89.54 ± 3.79%

## H-Gln-Glu-Met-Arg-Leu-Gln-NH2 (H-QEMRLQ-NH2) [DD15055]
  Relative level of miRNA145 respect to basal control (%): 67.03 ± 0.23%

## Ac-Gln-Glu-Met-Arg-Met-Gln-NH2 (Ac-QEMRMQ-NH2) [DD14023]
  Relative level of miRNA145 respect to basal control (%): 87.03 ± 2.65%

## Ac-Gln-Glu-Met-Arg-Met-Glu-OH (Ac-QEMRME-OH) [DD15020]
  Relative level of miRNA145 respect to basal control (%): 62.43 ± 0.89%

## Ac-Gln-Glu-Met-Lys-Leu-Gln-OH (Ac-QEMKLQ-OH) [DD15024]
  Relative level of miRNA145 respect to basal control (%): 87.92 ± 1.32%
